Results from patent US7256200B2, “Method and composition for potentiating an oplate analgesic” (The Board of Trustees of the University of Illinois, a body …, priority 2003, dated 2007).
Entries after “also recorded” stand apart in the source; their conditions may differ.

What was measured:
[1] = target: CaMKII (Homo sapiens, UniProt Q9UQM7); details: structural analog of KN93 used as control; cited from earlier work
[2] = Acute model of opioid tolerance (single s.c. morphine 100 mg/kg); format: in vivo; details: for prevention of opioid tolerance, acute model: administered simultaneously with morphine 100 mg/kg s.c., FIG. 6
Excerpt: (§1) Acute tolerance and dependence model is a method commonly used by researchers. […] In addition, the CaMKII inhibitor KN93 also was effective in reversing an already-established tolerance or dependence in the model (FIGS. 8 and 9). […] All effects are dose-dependent on the magnitude of inhibition of CaMKII.

[3] = system: PKC; details: at doses administered; cited from earlier work
[4] = system: morphine-pelleted rats; assay: Morphine antinociceptive tolerance in morphine-pelleted rats, 52° C. warm water tail-flick test; format: in vivo, rat
Experimental: Individual groups of eight rats were implanted with i.th. catheters and allowed to recover for 5 to 7 days.
Individual groups of eight rats were implanted with i.th. catheters and allowed to recover for 5 to 7 days. […] KN93 dose-response effect was determined and compared to its effect in inhibiting CaMKII activity.
Male Sprague-Dawley rats (250-350 g) were used in all experiments.
For i.th. drug administration, rats were prepared according to the method described by Sakura et al. (1996). While under isoflurane anesthesia, an 8 cm length of PE10 tubing (32 gauge) was inserted through an incision made in the atlantooccipital membrane to the level of the lumbar enlargement. The catheter then was secured to the musculature at the site of incision, which then was closed. The rats were allowed 5 to 7 days to recover before experiments begin. […] Intrathecally administered substances were dissolved in saline and administered in a volume of 5 μl through a tubing with calibrated length connecting the i.th. catheter with the injection syringe. Progress of the injection was monitored carefully by observing the movement of a small air bubble (1 μl in volume) through the tubing. The catheter was cleared by flushing with 9 μl saline. In all cases, a dye was injected into the cannula at the termination of the experiment to ensure correct i.th. placement.
Briefly, while under isoflurane anesthesia, a 1.5 cm incision was made on the back of the animal. […] These pellets were left for less than 7 days unless otherwise indicated.
Latency to warm water tail withdrawal response was determined in the manner described previously (Wang et al., 2001, Vanderah et al., 2001). The one-third of distal tail was immersed into a water bath maintained at 52° C. […] The data were converted to % MPE (maximal possible effect), defined as 100×(test-control)/(cutoff-control), where control was the predrug observation, test was the postdrug observation, and cutoff was 10 seconds. Dose-response curves were generated over time to determine the time of peak effect, the dose producing 50% MPE (A50), and its confidence intervals (Tallarida et al., 1986).

[5] = Acute model of opioid dependence (single s.c. morphine 100 mg/kg); format: in vivo
Excerpt: as §1

[6] = system: protein kinase A; details: at doses administered; cited from earlier work
[7] = system: mice; assay: Chronic mouse model of opioid tolerance (s.c. 75 mg morphine pellet); format: in vivo; details: FIG. 5
Excerpt: Additional in vivo tests corroborated initial test results showing that administration of a CaMKII inhibitor reduces or eliminates opioid tolerance and dependence. […] Administration of a CaMKII inhibitor, i.e., KN93, effectively reversed the established tolerance to opioids (FIG. 5). The effect of KN93 is dose dependent.

[8] = system: CaMKII; assay: Spinal CaMKII activity (pCaMKII Western blot) in morphine-pelleted rats; format: in vivo, rat; details: lumbar spinal cord, morphine vs placebo pelleted rats, two pairs of animals, β-actin control; FIG. 4
Excerpt: The average increase of CaMKII activity from two pairs of animals was 250%.
Briefly, while under isoflurane anesthesia, a 1.5 cm incision was made on the back of the animal. Morphine and placebo pellets were implanted into the subcutaneous space and the incision was closed with wound clips. These pellets were left for less than 7 days unless otherwise indicated.
Rats were sacrificed by carbon dioxide inhalation and decapitated. The spinal column was cut through at the S1/S2 level. A 16-gauge needle was inserted in the sacral vertebral canal, attached to a syringe containing ice-cold saline, and the spinal cord was ejected through the cervical opening. The spinal cord was placed on ice in a glass Petri dish and rapidly dissected using a dissecting microscope. For consistency, the lumbar enlargement corresponding to the L1 to L6 spinal segments was excised and used for all assays. […]
Spinal segments or harvested SH-SY5Y cells were homogenized on ice in RIPA buffer (1% NP-40, 0.5% sodium deoxycholate, 0.1% sodium dodecyl sulfate (SDS), 5 mM EDTA in PBS, pH 7.4) (3 ml/g wet tissue, or 0.6 ml/10 cm dish) in the presence of protease inhibitors (0.05 mg/ml pepstatin, 0.05 mg/ml aprotinin, 0.1 mg/ml phenylmethylsulfonyl fluoride). […] ECL-detected bands were analyzed using a densitometer and. Quantity One analysis program (BioRad, Hercules, Calif.).

Chain of CaMKII (Homo sapiens, UniProt Q9UQM7) (Q9UQM7 whole entry): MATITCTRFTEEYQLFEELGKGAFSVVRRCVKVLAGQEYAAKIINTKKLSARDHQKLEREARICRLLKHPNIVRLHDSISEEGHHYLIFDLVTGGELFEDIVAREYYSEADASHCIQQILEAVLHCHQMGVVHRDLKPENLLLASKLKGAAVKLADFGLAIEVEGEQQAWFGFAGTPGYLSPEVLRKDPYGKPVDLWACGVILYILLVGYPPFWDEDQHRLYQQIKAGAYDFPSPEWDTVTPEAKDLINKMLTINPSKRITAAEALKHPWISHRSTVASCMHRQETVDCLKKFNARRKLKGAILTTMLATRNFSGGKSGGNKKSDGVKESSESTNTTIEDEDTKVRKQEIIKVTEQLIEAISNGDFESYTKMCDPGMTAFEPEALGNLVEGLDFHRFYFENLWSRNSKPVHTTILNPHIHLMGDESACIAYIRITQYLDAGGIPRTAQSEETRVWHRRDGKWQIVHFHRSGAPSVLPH

| Compound | inhibition of CaMKII [1] | prevention of opioid tolerance, acute model [2] | inhibition of PKC [3] | effect on established morphine antinociceptive tolerance ([4]; KN93 15 nmol i.th. 15 minutes before i.th. morphine, 45 minutes before tail-flick, p<0.05 vs MS group, FIG. 3) | effect on basal nociception ([4]; KN93 alone, data not shown) | effect on morphine-antinociception in naïve rats ([4]; naïve rats, data not shown) | effect on morphine-induced analgesia ([4]; summary of test results) | reversal of established opioid tolerance, acute model ([2]; already-established tolerance, FIG. 8) | prevention of opioid dependence, acute model ([5]; administered simultaneously with morphine 100 mg/kg s.c., FIG. 7) | reversal of established opioid dependence, acute model ([5]; already-established dependence, FIG. 9) | inhibition of protein kinase A [6] | effect on established opioid tolerance, chronic model ([7]; chronic morphine pellet) | antinociceptive effect of acute i.th. morphine in morphine-pelleted vs placebo-pelleted rats ([4]; two 75 mg morphine pellets s.c., day 5, i.th. morphine 10 μg, 30 minutes, FIG. 3) | average increase of CaMKII activity (pCaMKII content) [8] | antinociceptive effects of morphine after chronic morphine treatment ([7]; s.c. 75 mg controlled-release pellet up to seven days) |
| --- | --- | --- | --- | --- | --- | --- | --- | --- | --- | --- | --- | --- | --- | --- | --- |
| COc1ccc(S(=O)(=O)Nc2ccccc2CN(C)C/C=C/c2ccc(Cl)cc2)cc1 [KN92] | does not inhibit | does not affect opioid tolerance | – | – | – | – | – | – | – | – | – | – | – | – | – |
| COc1ccc(S(=O)(=O)N(CCO)c2ccccc2CN(C)CC=Cc2ccc(Cl)cc2)cc1 [KN93] | – | prevents opioid tolerance | does not inhibit | reversed; also recorded: blocked | did not alter | nor did KN93 affect | does not affect | dose-dependently reverses | dose-dependently prevents | dose-dependently reverses | does not inhibit | dose-dependently reverses | – | – | – |
| CN1CC[C@]23c4c5ccc(O)c4O[C@H]2[C@@H](O)C=C[C@H]3[C@H]1C5 [morphine] | – | – | – | – | – | – | – | – | – | – | – | – | significantly reduced antinociceptive effect | 250% | significantly reduced antinociceptive effects |
